This is an account of results in US8569327B2, “Phenanthroindolizidine derivative and NFκB inhibitor containing same as active ingredient” (Kabushiki Kaisha Yakult Honsha, priority 2008, dated 2013).

The subject of data set [1] is human non-small cell lung cancer A549 cells. The data set is described as follows: Inhibitory action on the proliferation of A549 cells. In kind it is cell-based. The note with it: 96 hours, TetraColor ONE; for IC50: Homo sapiens, A549. As to the method: (§1) The action of the phenanthroindolizidine alkaloid compound of the present invention on the proliferation of human colon cancer SW480 cells, HT-29 cells, and human non-small cell lung cancer A549 cells was studied. The SW480 cells were suspended in a 10% FBS/RPMI1640 and then seeded in a 96-well microplate, followed by culturing in 5% CO2 at 37° C. (2000 cells/well). The A549 cells and the HT-29 cells were each suspended in a DMEM medium containing 10% FBS, 100 U/mL penicillin, and 100 μg/mL streptomycin (10% FBS/DMEM) and a DMEM F-12 HAM medium containing 10% FBS, 100 U/mL penicillin, and 100 μg/mL streptomycin (10% FBS/DMEM F12 HAM), and then seeded in 96-well microplates, followed by culturing in 5% CO2 at 37° C. (1000 cells/well). After an overnight culture, the compound of the present invention was added, followed by further culturing for 48 hours (SW480 cells) and 96 hours (A549 cells and HT-29 cells). After culturing, the number of viable cells was counted using TetraColor ONE (Seikagaku Corporation) in accordance with the attached operating procedure. The results were expressed as the concentration of a test compound needed for 50% inhibition of the proliferation of the cells (IC50).

A further data set relates to SV40 promoter. As to the kind of experiment: SV40 promoter activity, luciferase assay in SW480/SV40-Luc cells. In kind it is cell-based, human. The note with it: for IC50: Homo sapiens, SW480, read-out: SV40 promoter inhibitory activity IC50; for SV40 promoter inhibitory activity IC50: SW480/SV40-Luc cells, luciferase. The source says: (§2) The action of the phenanthroindolizidine alkaloid compound of the present invention on the NFκB activity was studied using a luciferase assay. Human colon cancer SW480 cells were transfected with pNFκB-Luc Plasmid (Stratagene), which is a reporter vector in which a five-time tandem repeat of the NFκB responsive element (NRE) is integrated into the upstream of the luciferase gene, using Lipofectamine 2000 (Invitrogen Corporation) in accordance with the attached operating procedure. Subsequently, the cells were cultured in an RPMI1640 medium containing 10% FBS, 100 U/mL penicillin, 100 μg/mL streptomycin, and 0.5 mg/mL G418 to produce SW480 cells having the luciferase gene, the expression of which is regulated by NRE, stably introduced therein (SW480/NRE-Luc cells). Likewise, SW480 cells were transfected with pGL3-Control Vector (Promega Corporation), which is a reporter vector in which the SV40 promoter is integrated into the upstream of the luciferase gene, to produce SW480 cells having the luciferase gene, the expression of which is regulated by the SV40 promoter, stably introduced therein (SW480/SV40-Luc cells). The SW480/NRE-Luc cells or the SW480/SV40-Luc cells were suspended in an RPMI1640 medium containing 10% FBS, 100 U/mL penicillin, and 100 μg/mL streptomycin (10% FBS/RPMI1640), and then seeded in a 96-well microplate, followed by culturing under conditions of 5% CO2 and at 37° C. (5000 cells/well). After an overnight culture, the compound of the present invention was added, followed by culturing for one hour. Further, 50 ng/mL TNFα (Sigma-Aldrich Corporation) was added, followed by culturing for four hours. Subsequently, a Steady-Glo Luciferase Assay reagent (Promega Corporation) was added, and the luminescent intensity was detected by SpectraMax M5e (Molecular Devices, Inc.) to measure the intracellular luciferase activity. It is to be noted that the action of the compound of the present invention on the NFκB activity or the SV40 promoter activity was shown as IC50 values (the concentration of a test compound needed for 50% inhibition of the induction of the luciferase expression).

Data set [2] relates to human colon cancer HT-29 cells. The data set is described as follows: Inhibitory action on the proliferation of HT-29 cells. In kind it is cell-based. The note with it: 96 hours, TetraColor ONE; for IC50: Homo sapiens, HT-29. On the procedure:
as §1

The subject of data set [3] is mice transplanted with mouse fibrosarcoma Meth A cells. The data set is described as follows: Animal toxicity test. In kind it is in vivo. The note with it: intravenous days 1, 5, 9, observed three weeks. On the procedure: Also, the toxicity of known phenanthroindolizidine alkaloid compounds, namely (12aS,13S)-6,7-dimethoxy-9,10,11,12,12a,13-hexahydro-9a-aza-cyclopenta[b]triphenylene-3,13-diol (known compound 1; refer to WO01/023384) and (12aS,13S)-3,6,7-trimethoxy-9,10,11,12,12a,13-hexahydro-9a-aza-cyclopenta[b]triphenylene-13-ol (known compound 2; refer to Planta Med., 2002, 68: 186-188), was simultaneously studied. To a control group, a physiological saline solution, a solvent, was administered. As a result, as shown in the following Tables 35 and 36, all the mice survived in a group administered with the compound of the present invention.

Data set [4] deals with human colon cancer SW480 cells. As to the kind of experiment: Inhibitory action on the proliferation of SW480 cells. The format is cell-based. The note with it: 48 hours, TetraColor ONE; for IC50: Homo sapiens, SW480. On the procedure: as §1
Another data set relates to NFκB. As to the kind of experiment: Inhibitory action on the NFκB activity, luciferase assay in SW480/NRE-Luc cells. The format is cell-based, human. The note with it: for IC50: Homo sapiens, SW480, read-out: NFκB inhibitory activity IC50; for NFκB inhibitory activity IC50: SW480/NRE-Luc cells, compound 1 h then 50 ng/mL TNFα 4 h, luciferase.
Source text: as §2

A word on the IC50: it is the concentration needed to halve the response being measured.

Turning to `COc1cc2c3c(c4ccccc4c2cc1OC)[C@@H](O)[C@H]1CCCN1C3.Cl` [Compound 2, (12aR,13R)-6,7-dimethoxy-9,10,11,12,12a,13-hexahydro-9a-aza-cyclopenta[b]triphenylene-13-ol hydrochloride], the half-maximal inhibitory concentration (IC50) in data set [1] is 211 ng/mL; in the data set on SV40 promoter, over 10000 ng/mL; in data set [2], 204 ng/mL; in data set [4] it was 1020 ng/mL; in the data set on NFκB, 387 ng/mL. Further, the Mortality rate in data set [3] (total dose 25 mg/kg) and in data set [3] (total dose 50 mg/kg) was 0/5 throughout.
As for `CCc1ccc2c3c(c4cc(OC)c(OC)cc4c2c1)CN1CCC[C@@H]1[C@@H]3O.Cl` [Compound 4, (12aR,13R)-3-ethyl-6,7-dimethoxy-9,10,11,12,12a,13-hexahydro-9a-aza-cyclopenta[b]triphenylene-13-ol hydrochloride], the IC50 in data set [1] was 101 ng/mL; with SV40 promoter, over 10000 ng/mL; in data set [2], 121 ng/mL; in data set [4] it was 513 ng/mL; with NFκB it was 201 ng/mL. The Mortality rate in data set [3] (total dose 25 mg/kg) and in data set [3] (total dose 50 mg/kg) was 0/5 each time.
Take `C#CCOC(=O)Oc1ccc2c3c(c4cc(OC)c(OC)cc4c2c1)CN1CCC[C@H]1[C@H]3O.Cl` [Compound 27, carbonic acid(12aS,13S)-13-hydroxy-6,7-dimethoxy-9,10,11,12,12a,13-hexahydro-9a-aza-cyclopenta[b]triphenylene-3-yl ester-propyn-2-yl ester hydrochloride]: the “A549 proliferation inhibitory action IC50” value in data set [1] came to 0.025 ng/mL. Besides, the “SV40 promoter inhibitory activity IC50” value in the data set with SV40 promoter is reported as over 10 ng/mL. The “HT-29 proliferation inhibitory action IC50” value in data set [2] was found to be 0.055 ng/mL. Further, the Mortality rate in data set [3] (total dose 25 mg/kg) and in data set [3] (total dose 50 mg/kg) was 0/5 in each case. Further, the “SW480 proliferation inhibitory action IC50” value in data set [4] came to 0.66 ng/mL. For the same compound, in the data set with NFκB, the “NFκB inhibitory activity IC50” value stood at 0.37 ng/mL.
As for `COc1cc2c3c(c4cc(O)ccc4c2cc1OC)[C@H](O)[C@@H]1CCCN1C3.Cl` [Compound 29, (12aS,13S)-6,7-dimethoxy-9,10,11,12,12a,13-hexahydro-9a-aza-cyclopenta[b]triphenylene-2,13-diol hydrochloride], the half-maximal inhibitory concentration (IC50) in data set [1] is 1.7 ng/mL; in the data set with SV40 promoter, over 1000 ng/mL; in data set [2], 2.5 ng/mL; in data set [4], 4 ng/mL; with NFκB, 1.4 ng/mL. In addition, the Mortality rate in data set [3] (total dose 25 mg/kg) and in data set [3] (total dose 50 mg/kg) was 0/5 in each case.
Take `COc1cc2c3c(c4ccc(O)cc4c2cc1OC)[C@H](O)[C@@H]1CCCN1C3` [Known compound 1, (12aS,13S)-6,7-dimethoxy-9,10,11,12,12a,13-hexahydro-9a-aza-cyclopenta[b]triphenylene-3,13-diol, reference compound]: the Mortality rate was 0/5 in data set [3] (total dose 25 mg/kg); 5/5 in data set [3] (total dose 50 mg/kg, 50 mg/kg); “all the mice died” in data set [3] (total dose 50 mg/kg, listed as known compound 1, 50 mg/kg).
For `COc1ccc2c3c(c4cc(OC)c(OC)cc4c2c1)CN1CCC[C@H]1[C@H]3O` [Known Compound 2, (12aS,13S)-3,6,7-trimethoxy-9,10,11,12,12a,13-hexahydro-9a-aza-cyclopenta[b]triphenylene-13-ol, reference compound], the Mortality rate in data set [3] (total dose 25 mg/kg, 25 mg/kg) is 2/5; in data set [3] (total dose 25 mg/kg, listed as known compound 2, 25 mg/kg), “some of the mice also died”; in data set [3] (total dose 50 mg/kg, 50 mg/kg) it was 5/5; in data set [3] (total dose 50 mg/kg, listed as known compound 2, 50 mg/kg), “all the mice died”.
As to “benzhydryl-((S)-6,7-dimethoxy-3-pyrrolidine-9,10,11,12,12a,13-hexahydro-9a-aza-cyclopenta[b]triphenylene-3-yl)-amine methanesulfonate [Compound 58]”, in data set [1], the “A549 proliferation inhibitory action IC50” value came to 20.7 ng/mL. In addition, the “SV40 promoter inhibitory activity IC50” value in the data set with SV40 promoter was over 10000 ng/mL. The “HT-29 proliferation inhibitory action IC50” value in data set [2] is 52.2 ng/mL. Besides, in data set [4], the “SW480 proliferation inhibitory action IC50” value came out at 42.3 ng/mL. Also, the “NFκB inhibitory activity IC50” value in the data set on NFκB turned out to be 16.2 ng/mL.
In the same order, the values of `COc1cc2c3c(c4ccc(OC(=O)c5ccncc5)cc4c2cc1OC)[C@H](O)[C@@H]1CCCN1C3.Cl` [Compound 12, isonicotinic acid(12aS,13S)-13-hydroxy-6,7-dimethoxy-9,10,11,12,12a,13-hexahydro-9a-aza-cyclopenta[b]triphenylene-3-yl ester hydrochloride] are 0.19 ng/mL, over 100 ng/mL, 0.62 ng/mL, 0.51 ng/mL and 0.33 ng/mL.
Turning to `CCc1ccc2c3c(c4cc(OC)c(OC)cc4c2c1)CN1CCC[C@H]1C3.Cl` [Compound 41, (S)-3-ethyl-6,7-dimethoxy-9,10,11,12,12a,13-hexahydro-9a-aza-cyclopenta[b]triphenylene hydrochloride], the concentration for half-maximal inhibition (IC50) in data set [1] is 112 ng/mL; in the data set on SV40 promoter, over 10000 ng/mL; in data set [2] it was 167 ng/mL; in data set [4], 391 ng/mL; in the data set with NFκB, 281 ng/mL.
`CCCC(=O)Oc1ccc2c3c(c4cc(OC)c(OC)cc4c2c1)CN1CCC[C@H]1C3.CS(=O)(=O)O` [Compound 50, butyric acid(S)-6,7-dimethoxy-9,10,11,12,12a,13-hexahydro-9a-aza-cyclopenta[b]triphenylene-3-yl ester methanesulfonate]: the “A549 proliferation inhibitory action IC50” value in data set [1] was 0.86 ng/mL. In addition, the “SV40 promoter inhibitory activity IC50” value in the data set with SV40 promoter is recorded as over 100 ng/mL. Also, the “HT-29 proliferation inhibitory action IC50” value in data set [2] is listed as 1.5 ng/mL. In addition, in data set [4], the “SW480 proliferation inhibitory action IC50” value is listed as 0.54 ng/mL. Moreover, the “NFκB inhibitory activity IC50” value in the data set with NFκB came to 0.34 ng/mL.
Turning to `COc1cc2c3c(c4ccc(F)cc4c2cc1OC)[C@H](O)[C@@H]1CCCN1C3.Cl` [Compound 5, (12aS,13S)-3-fluoro-6,7-dimethoxy-9,10,11,12,12a,13-hexahydro-9a-aza-cyclopenta[b]triphenylene-13-ol hydrochloride], the concentration for half-maximal inhibition (IC50) is 4.1 ng/mL in data set [1]; over 1000 ng/mL with SV40 promoter; 7.2 ng/mL in data set [2]; 39.2 ng/mL in data set [4]; 20.7 ng/mL in the data set with NFκB.
